Assay results published in the supplement of paper PMC11451515.

System: SEM cells
Assay: cell viability relative to DMSO control; higher = less cytotoxic
Conditions: 48 h
Outline: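 Viability values are per-plate percentages of DMSO wells, with background from cell-free wells. Library compounds in DMSO were pin-dosed, in an 11-point threefold series from 47 μM to 0.79 nM, onto NOMO1 or SEM (500 cells/well) or P12-Ichikawa (1000 cells/well) leukemia cells in 1536-well plates (5 μl). Those cells had been adapted for at least four passages in each medium, and CellTiter-Glo One luminescence was read after 48 h at 37°C.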

[1] = HPLM + 10% dialyzed FBS, 0.000781 µM
[2] = HPLM + 10% dialyzed FBS, 0.00234 µM
[3] = HPLM + 10% dialyzed FBS, 0.00702 µM
[4] = HPLM + 10% dialyzed FBS, 0.0211 µM
[5] = HPLM + 10% dialyzed FBS, 0.0632 µM
[6] = HPLM + 10% dialyzed FBS, 0.19 µM
[7] = HPLM + 10% dialyzed FBS, 0.569 µM
[8] = HPLM + 10% dialyzed FBS, 1.71 µM
[9] = HPLM + 10% dialyzed FBS, 5.12 µM
[10] = HPLM + 10% dialyzed FBS, 15.4 µM
[11] = HPLM + 10% dialyzed FBS, 46.1 µM
[12] = RPMI 5 mM glucose + 10% FBS, 0.000781 µM
[13] = RPMI 5 mM glucose + 10% FBS, 0.00234 µM
[14] = RPMI 5 mM glucose + 10% FBS, 0.00702 µM
[15] = RPMI 5 mM glucose + 10% FBS, 0.0211 µM
[16] = RPMI 5 mM glucose + 10% FBS, 0.0632 µM
[17] = RPMI 5 mM glucose + 10% FBS, 0.19 µM
[18] = RPMI 5 mM glucose + 10% FBS, 0.569 µM
[19] = RPMI 5 mM glucose + 10% FBS, 1.71 µM
[20] = RPMI 5 mM glucose + 10% FBS, 5.12 µM
[21] = RPMI 5 mM glucose + 10% FBS, 15.4 µM
[22] = RPMI 5 mM glucose + 10% FBS, 46.1 µM
[23] = RPMI 5 mM glucose + 10% dialyzed FBS, 0.000781 µM
[24] = RPMI 5 mM glucose + 10% dialyzed FBS, 0.00234 µM
[25] = RPMI 5 mM glucose + 10% dialyzed FBS, 0.00702 µM
[26] = RPMI 5 mM glucose + 10% dialyzed FBS, 0.0211 µM
[27] = RPMI 5 mM glucose + 10% dialyzed FBS, 0.0632 µM
[28] = RPMI 5 mM glucose + 10% dialyzed FBS, 0.19 µM
[29] = RPMI 5 mM glucose + 10% dialyzed FBS, 0.569 µM
[30] = RPMI 5 mM glucose + 10% dialyzed FBS, 1.71 µM
[31] = RPMI 5 mM glucose + 10% dialyzed FBS, 5.12 µM
[32] = RPMI 5 mM glucose + 10% dialyzed FBS, 15.4 µM
[33] = RPMI 5 mM glucose + 10% dialyzed FBS, 46.1 µM

Compound	cell viability [1]	cell viability [2]	cell viability [3]	cell viability [4]	cell viability [5]	cell viability [6]	cell viability [7]	cell viability [8]	cell viability [9]	cell viability [10]	cell viability [11]	cell viability [12]	cell viability [13]	cell viability [14]	cell viability [15]	cell viability [16]	cell viability [17]	cell viability [18]	cell viability [19]	cell viability [20]	cell viability [21]	cell viability [22]	cell viability [23]	cell viability [24]	cell viability [25]	cell viability [26]	cell viability [27]	cell viability [28]	cell viability [29]	cell viability [30]	cell viability [31]	cell viability [32]	cell viability [33]
N/C(=N\C(=O)c1nc(Cl)c(N)nc1N)NCc1ccccc1	74.5%	91.8%	92.9%	106%	91.3%	94.6%	113%	102%	98.8%	85%	77.2%	76.4%	91.1%	95.2%	94.3%	83.8%	96.5%	84.3%	97.3%	94.6%	62.3%	43.5%	91%	103%	94%	102%	81.6%	99.8%	94.2%	99.5%	90.8%	76.2%	59.7%
CN(C)[C@H]\1[C@@H]2[C@@H](O)[C@@H]\3C(=C)C4=C(C(=CC=C4)O)C(=O)C3=C(\O)[C@@]2(O)C(=O)\C(=C1O)C(N)=O	85.1%	91.5%	81.1%	97.1%	90.4%	98.6%	98.2%	113%	96.5%	97.8%	91.6%	104%	97.8%	82.5%	119%	112%	124%	118%	118%	105%	93.9%	79.7%	112%	121%	86.7%	108%	122%	125%	106%	123%	114%	107%	91.6%
Cc1ccccc1C(C(=O)NC1CCCCC1)N(C(=O)CNc1ccc(C#N)cc1)c1cccc(F)c1 (configuration not stated)	88.7%	116%	119%	121%	124%	118%	118%	105%	118%	103%	111%	113%	118%	105%	106%	105%	119%	103%	96.9%	95%	93.4%	106%	85%	107%	119%	95.4%	97%	103%	91.6%	108%	97.6%	101%	89.5%
C[C@@H]1CN(CC(=O)N2CC(C)(C)c3ncc(Cc4ccc(F)cc4)cc32)[C@@H](CN2CCOC[C@H]2C)CN1	83.8%	105%	48%	115%	105%	95.2%	113%	85%	105%	104%	73%	76.3%	96.3%	30.4%	104%	92.5%	88.9%	97.8%	89.2%	110%	80.4%	54.9%	86.9%	116%	40.8%	117%	103%	114%	111%	104%	111%	94.5%	75.6%
